The source of these data is US20110142837A1, “Method Of Treating Acute Respiratory Distress Syndrome” (TRUSTEES OF THE UNIVERSITY OF PENNSYLVANIA, priority 2007, published 2011).

The test system of experiment [1] is neutrophils from healthy individuals incubated with BAL fluid from ARDS patients. Briefly: mPT of supernatants from healthy neutrophils stimulated with ARDS BAL fluid, inhibition studies. It is filed as cell-based, human. Here is the method: Isolation of peripheral blood neutrophils: Circulating leukocytes from all ARDS patients and from 4 healthy donors were immediately isolated from EDTA-treated peripheral blood. Peripheral blood neutrophils were separated by Histopaque-double gradient density centrifugation. The absolute number of neutrophils was adjusted to 2-3×10^6 cells/ml in PBS. Approximately one-quarter (˜6-8×10^5 cells in 250 μl PBS) was used for each stimulation or inhibition reaction. Cell purity (>98%), viability by trypan blue exclusion (>97%), and platelet contamination (<2 platelets/100 neutrophils) were assessed in all experiments.
Modified prothrombin time (mPT) assay: The supernatants from neutrophils that had been incubated with BALF supernatants or/and various agents were isolated by centrifugation at 1000×g for 10 minutes; the supernatants from these neutrophil preparations were checked a second time to confirm the absence of contaminating cells or platelets. The coagulation activities (TF/FVIIa binding activity) of the cell supernatants were determined using a modified prothrombin time (mPT) assay as previously described (18). After performing the “classic” prothrombin time (PT) test (100 microliter (μl) platelet poor plasma (PPP) plus 200 μl thromboplastin ISI 1.9 (Instrumentation Laboratory, Milan, Italy), the modified PT analysis was carried out. Namely, 120 μl of cell or BALF supernatant and 80 μl thromboplastin were added to 100 μl of PPP to measure the changes in PT. As a control for modified PT assays, 120 μl of PBS was used instead of cell supernatant, and the in vitro clotting time usually ranged from 31 seconds to 34 seconds.
(§1) Stimulation and inhibition studies: Neutrophils from healthy individuals were incubated for 120 minutes at 37° C. in PBS containing various stimulatory or inhibitory substances, in a total volume of 250 μl. Neutrophils were incubated with: 1) serum (50 μl) from healthy individuals; 2) serum (50 μl) from patients suffering from ARDS; 3) BAL fluid (40 μl) from ARDS patients; 4) BAL fluid from ARDS patients, together with normal neutrophils that had been pretreated for 30 minutes with the C5aR antagonist AcF-[OpdChaWR] (5 μM final concentration); 5) BAL fluid from patients with ARDS, together with normal neutrophils that had been preincubated for 30 minutes with the C3aR antagonist […], 10 μM final concentration); 6) BAL fluid from ARDS patients pretreated for 30 minutes with Humira® (Abbot Laboratories, Abbott Park, Ill.; anti-TNF monoclonal antibody, 0.4 μg/μl final concentration), together with normal neutrophils; or 7) BAL fluid from ARDS patients, together with normal neutrophils pretreated for 30 minutes with anti-IL-6 Mab (10 μg/ml final concentration).
In the complement cascade, cleavage of C3 produces C3a and C3b. C3b contributes to the formation of enzymatic assemblies that in turn catalyze the formation of C5a from C5. The following experiment was designed to test whether inhibition of C3 cleavage, which reduces the amount of C5a formed, is effective in reducing TF expression. Modified PT assays were carried out essentially as described above using neutrophils obtained from healthy individuals and incubating them with BAL fluid from patients with ARDS. The BAL fluid from the seven patients was tested individually.

The target in experiment [2] is C5a receptor (C5aR) on neutrophils from healthy individuals (human) (UniProt P21730). As to the kind of experiment: cell-based or functional assay.
Experiment [3] deals with TF expression in neutrophils. Briefly: TF expression in BALF-stimulated healthy neutrophils (APAAP immunostaining, FACS, western blot). As to conditions: FIGS. 4B, C and D; healthy neutrophils + 40 μl ARDS BALF. It is filed as cell-based, human. The protocol: as §1
Alkaline-Phosphatase anti-Alkaline-Phosphatase (APAAP) Immunostaining: Smears of cells (BALF pellet and peripheral blood-isolated neutrophils, before and after stimulation and/or inhibition studies) were stored at −20° C. prior to use. […]
On the technique in general: In western blotting, separated proteins are transferred to a membrane and probed.

In experiment [4] the target is TNF-alpha in BALF from ARDS patients (human) (UniProt P01375). As to the kind of experiment: cell-based or functional assay.
Chain of UniProt P01375 (P01375 77-233 limits assumed): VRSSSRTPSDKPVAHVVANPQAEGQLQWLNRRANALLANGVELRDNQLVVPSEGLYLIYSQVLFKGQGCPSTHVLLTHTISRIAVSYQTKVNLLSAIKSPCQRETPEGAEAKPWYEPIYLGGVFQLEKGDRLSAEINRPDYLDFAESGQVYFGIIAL

Chain of UniProt P21730 (P21730 whole entry): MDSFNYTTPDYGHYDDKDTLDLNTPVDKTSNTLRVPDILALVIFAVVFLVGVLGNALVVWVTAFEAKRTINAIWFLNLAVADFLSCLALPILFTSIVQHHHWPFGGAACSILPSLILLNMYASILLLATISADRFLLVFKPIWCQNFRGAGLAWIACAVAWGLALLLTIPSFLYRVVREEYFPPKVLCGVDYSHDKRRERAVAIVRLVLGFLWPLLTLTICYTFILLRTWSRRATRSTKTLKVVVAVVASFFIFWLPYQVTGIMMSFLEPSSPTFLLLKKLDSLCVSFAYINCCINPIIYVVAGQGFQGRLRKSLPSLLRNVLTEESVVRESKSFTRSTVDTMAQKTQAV

Regarding `NC(N)=NCCC[C@H](NC(=O)COCC(c1ccccc1)c1ccccc1)C(=O)O` [SB-290152], the “influence on mPT values of supernatants from BALF-stimulated neutrophils” value in experiment [1] (SB-290152 10 μM, anti-IL-6 Mab 10 μg/ml, 30 minutes pretreatment) was “did not influence the mPT values”.

For `CC[C@H](C)[C@H](N)C(=O)N[C@H]1CSSC[C@@H](C(=O)N[C@H](C(N)=O)[C@@H](C)O)NC(=O)[C@H](CCCN=C(N)N)NC(=O)[C@H](Cc2cnc[nH]2)NC(=O)[C@H](Cc2cnc[nH]2)NC(=O)CNC(=O)[C@H](Cc2c[nH]c3ccccc23)NC(=O)[C@H](CC(=O)O)NC(=O)[C@H](CCC(N)=O)NC(=O)[C@H](C(C)C)NC(=O)[C@H](C(C)C)NC1=O` [compstatin, Ile-Cys-Val-Val-Gln-Asp-Trp-Gly-His-His-Arg-Cys-Thr], the “mPT, healthy neutrophils + BALF incubated with compstatin, group b” value in experiment [1] (3 ARDS cases (group b), FIG. 6, column 5, P=ns compared to BALF alone 24.13±1.31) is recorded as 24.57±0.55. In addition, the “mPT, healthy neutrophils + BALF preincubated with compstatin, group a” value in experiment [1] (4 ARDS cases (group a), FIG. 6, column 4, p<0.001 compared to BALF alone 24.13±1.31, PBS 32.11±0.58) is reported as 27.98±0.71. Moreover, the “effect on procoagulant activity in mPT, Comp b” value in experiment [1] (group of 3 ARDS patients, FIG. 6) is “did not significantly reduce the procoagulant activity”. Also, in experiment [1] (group of 4 ARDS patients, FIG. 6), the “effect on procoagulant activity in mPT, Comp a” value is listed as “reduced the procoagulant activity”.

Regarding “AcF-[OPdChaWR] (acetyl-Phe-[Orn-Pro-D-cyclohexylalanine-Trp-Arg]; PMX-53) (peptide)”, in experiment [2], the modified prothrombin time (mPT) of supernatants from BALF-stimulated healthy neutrophils pretreated with C5aR antagonist amounted to 31.9 s.

Turning to “Acetyl-Phe-[Orn-Pro-D-cyclohexylalanine-Trp-Arg] [PMX-53]”, the “mPT of supernatants from BALF-stimulated healthy neutrophils after blockade of signaling” value in experiment [1] (40 μl ARDS BALF, 30 minutes pretreatment, C5aR antagonist 5 μM, Humira 0.4 μg/μl, BALF without inhibitor 24.13±1.31 sec, ARDS serum control 29.69±1.64 sec, p<0.001, FIG. 4A) was 31.91 ± 0.64 s. The “TF expression in BALF-stimulated neutrophils after blockade (immunohistochemical, flow cytometry, western blot)” value in experiment [3] is recorded as “loss of TF expression”.

As to “Humira (Abbott Laboratories; anti-TNF monoclonal antibody)”, in experiment [4], the modified prothrombin time (mPT) of supernatants from healthy neutrophils stimulated with BALF pretreated with anti-TNF antibody came out at 30.4 s.
